{"source": "patent US10744181B2", "about": "“Glycopeptide derivatives for use in the treatment and/or prevention and/or attenuation of fibrosis diseases” (TFCHEM, priority 2017, dated 2020)", "assay_type_in_all_cases": "cell-based, human", "key": {"[1]": {"system": "Collagen III", "experiment": "Collagen III synthesis (ELISA) in normal fibroblasts", "conditions": "normal fibroblasts (NF), compound at 9.4 mM, 48 hours; ng collagen III per mg proteins", "protocol": "(§1) Primary cultures of keloid fibroblasts (KF) and normal fibroblasts (NF) were obtained from operative wastes (keloid and abdominoplasty). After thawing, cells were grown in Dulbecco's modified Eagle's medium (DMEM) supplemented with 10% of fetal calf serum, 40 mg/l of gentamicin and 2 mg/l of fungizone (DMEMc), in an incubator at 37° C., 5% CO2. Culture medium was changed twice a week and cells were subcultured by trypsinization when confluence was reached. Cells were used under 10 passages.\n(§2) Compound 1 was directly diluted in culture medium at 5 mg/ml.\n(§3) Fibroblasts were seeded in 6 wells culture plate at the concentration of 0.08·10^6 cells/well (n=6). […]\n(§4) The synthetized collagen quantity is expressed as the ratio of quantity of collagen vs quantity of total proteins in the sample.\n(§5) The quantity of total protein was determined using a biochemical test, the bicinchoninic acid assay (BCA assay). […] Absorbance is read immediately at 550 nm (Spectrophotometer Multiscan Ex, Thermo). The standard curve is drawn and the sample protein concentration is determined with this curve. […]\nCollagen III synthesis is performed by Enzyme-linked immunosorbent assay with an ELISA kit (USCN SEA576Hu, Euromedex). […] The enzyme-substrate reaction is terminated by the addition of sulfuric acid solution and the color change is measured spectrophotometrically at 450 nm. […]\n(§6) Data are expressed as mean+/−sem. […]"}, "[2]": {"system": "Collagen I", "experiment": "Collagen I synthesis (ELISA) in normal fibroblasts", "conditions": "normal fibroblasts (NF), compound at 9.4 mM, 48 hours; pg collagen I per mg proteins", "protocol": "as §1, §2, §3, §4, §5\n(§7) Collagen I synthesis was evaluated by Enzyme-linked immunosorbent assay with an ELISA kit (USCN SEA571Hu, Euromedex). […] The enzyme-substrate reaction is terminated by the addition of sulfuric acid solution and the color change is measured spectrophotometrically at 450 nm. […]\nas §6"}, "[3]": {"system": "collagen I/collagen III ratio", "experiment": "Collagen I/collagen III ratio in normal fibroblasts", "conditions": "normal fibroblasts (NF), compound at 9.4 mM", "protocol": "as §1, §2\nFibroblasts were seeded in 6 wells culture plate at the concentration of 0.08·10^6 cells/well (n=6). After 48 hours of culture, wells were washed with 3 ml of PBS. 2 ml of each solution of tested compound were added per wells. […]\nas §4\nas §7, with “nm. The concentration of collagen I in the samples is then determined by comparing the optical density of the samples to the standard curve. The results were expressed as pg of collagen I by mg of proteins.” for “nm.”"}}, "note": "Marks after values point to notes of the source that are not given here.", "data": [{"smiles": "C[C@H](NC(=O)[C@H](C)NC(=O)[C@@H](N)CCCCNCC(F)(F)[C@]1(O)O[C@H](CO)[C@H](O)[C@H](O)[C@H]1O)C(=O)O", "note": "[Compound 1]", "values": [{"measurement": "Protein Collagen III, Mean", "setting": "[1]", "result": "6.57*** ng/mg"}, {"measurement": "Protein Collagen I, Mean", "setting": "[2]", "result": "28.85*** pg/mg"}, {"measurement": "Ratio collagen I/collagen III", "setting": "[3]", "result": "4.39.10^−3"}]}]}
